Experimental findings from patent US20030195205A1, “PDE9 inhibitors for treating cardiovascular disorders” (Pfizer Inc., priority 2001, published 2003) are described below.

The structures appear in SMILES notation. Where two headings read alike, the source gives them in different places.

This assay has as its target T1, purified recombinant human PDE9 (Homo sapiens, UniProt O76083).
T1 construct: FLAG; made in house; host or cells: baculovirus/Sf9
Put plainly: PDE9 enzyme inhibition scintillation proximity assay ([3H]cGMP hydrolysis). The assay is classed as biochemical. The settings on record: for inhibition at 1 µM: 1 μM compound, read-out: inhibition against PDE9 at a concentration of 1 μM. The protocol: The ability of the compounds of the invention to inhibit the PDE9 enzyme was determined using the following in vitro assay. The assay used purified recombinant human PDE9.
The assay uses [3H]cGMP which is hydrolysed by the PDE9 enzyme to the 5′-nucleotide [3H]GMP. The [3H]GMP binds to yttrium silicate scintillation proximity assay (SPA) beads, and detected by scintillation counting. Inhibition of activity is determined relative to the activity of uninhibited controls.
Phosphodiesterase Scintillation Proximity Assay (SPA) beads (Yttrium Silicate) were obtained from Amersham Biotech.
[^3H]Guanosine 3′,5′-Cyclic Phosphate ([^3H]-cGMP), Ammonium Salt was obtained from Amersham Biotech.
Buffer A was prepared containing Tris.HCl (20 mM), MgCl2.6H2O (5 mM) in water.
Buffer B was prepared containing Bovine Serum Albumin (2 mg/ml) (BSA) in Buffer A. It was prepared fresh and filter sterilised.
PDE9 enzyme solution was prepared in Buffer B (dilution factor determined such that no more than 30% breakdown of substrate occurred, but typically 1:35,000).
SPA beads were prepared by creating a suspension of beads in water (20 mg/ml) (28 ml per pack) containing 3 mM cold cGMP to effectively quench the reaction.
The compounds of the invention were diluted by a factor of 50 (i.e. 2 μl in 100 μl) when constituted in the final assay mix. Compound stock was prepared at 4 mM in DMSO. Dilute 1/8 with DMSO to give 500 μM solutions.
A 4 mM stock of standard inhibitor was prepared in DMSO. The standard inhibitor chosen was 5-(3-bromobenzyl)-3-n-propyl-1,6-dihydro-7H-pyrazolo[4,3-d]pyrimidin-7-one. The solution was further diluted with DMSO to give a 500 μM solution.
Following serial dilution, 2 μl of compound dilutions were dispensed in duplicate into microtitre plates with 2 μl DMSO added to controls as shown below.
To the microtitre plates containing solutions of compounds of the invention (2 μl) was added Buffer A (25 μl) to all wells. Buffer B (25 μl) was added to blank wells. Enzyme solution (25 μl) was added all wells except blanks. Substrate solution (50 μl) was added to each well. The plates were sealed and incubated for 15 minutes on a plate-shaker at 30 °C. SPA bead solution (50 μl) was added (containing excess cGMP) to each well to stop the reaction (Note: yttrium silicate beads are dense and require constant agitation whilst being added to each plate). The plates were shaken for 15 minutes to allow the beads to bind the GMP product and then allowed to settle for 30 minutes.
The plates were then analysed using a scintillation counter (such as the NXT TopCount)TM.
For each compound the percentage inhibition was calculated by the following equation:
(mean maximum−compound value)/(mean maximum−mean minimum)×100
IC50 values were determined from sigmoid dose response curves of enzyme activity vs. compound concentration.
A general note: Scintillation proximity formats need no separation of bound from free tracer.

T1 sequence (O76083 whole entry): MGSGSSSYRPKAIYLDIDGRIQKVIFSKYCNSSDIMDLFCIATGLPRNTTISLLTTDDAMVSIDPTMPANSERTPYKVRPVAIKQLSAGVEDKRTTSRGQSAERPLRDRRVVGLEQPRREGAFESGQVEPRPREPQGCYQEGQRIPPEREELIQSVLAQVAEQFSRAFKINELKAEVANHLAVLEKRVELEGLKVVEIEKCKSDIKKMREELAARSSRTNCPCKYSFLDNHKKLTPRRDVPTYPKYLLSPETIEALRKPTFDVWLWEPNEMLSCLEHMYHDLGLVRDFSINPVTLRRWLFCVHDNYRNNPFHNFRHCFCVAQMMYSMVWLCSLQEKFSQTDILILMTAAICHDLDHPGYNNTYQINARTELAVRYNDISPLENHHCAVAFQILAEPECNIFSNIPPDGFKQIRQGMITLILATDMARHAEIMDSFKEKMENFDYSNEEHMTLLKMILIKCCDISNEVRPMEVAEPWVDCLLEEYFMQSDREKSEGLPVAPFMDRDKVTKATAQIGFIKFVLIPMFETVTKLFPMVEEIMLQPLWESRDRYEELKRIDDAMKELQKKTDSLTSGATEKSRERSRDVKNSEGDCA

Regarding `CC(C)c1n[nH]c2c(=O)[nH]c(Cc3ccccc3Oc3ccccc3)nc12` [Compound 52, 3-isopropyl-5-(2-phenoxybenzyl)-1,6-dihydro-pyrazolo[4,3-d]pyrimidin-7-one], the inhibition at 1 µM is greater than 40%. For the setting “read-out: IC50 against PDE9”, the IC50 (as a rule, the point on the concentration scale where inhibition reaches its midpoint) is 126 nM.
As to `O=c1[nH]c(Cc2ccccc2OCc2ccccc2)nc2c(-c3cccnc3)n[nH]c12` [Compound 138, 3-(3-pyridinyl)-5-(2-benzyloxybenzyl)-1,6-dihydro-pyrazolo[4,3-d]pyrimidin-7-one], the inhibition at 1 µM was greater than 40%.
Turning to `CC(C)c1n[nH]c2c(=O)[nH]c(Cc3ccccc3OC(F)(F)F)nc12` [Compound 156, 3-isopropyl-5-(2-trifluoromethoxybenzyl)-1,6-dihydro-pyrazolo[4,3-d]pyrimidin-7-one], the inhibition at 1 µM was greater than 40%.
Take `O=c1[nH]c(Cc2ccccc2OCc2ccccc2)nc2c(C3CCCC3)n[nH]c12` [Compound 204, 3-cyclopentyl-5-(2-benzyloxybenzyl)-1,6-dihydro-pyrazolo[4,3-d]pyrimidin-7-one]: the inhibition at 1 µM is greater than 40%. Moreover, the IC50 (read-out: IC50 against PDE9) was found to be 143 nM.
Turning to `O=c1[nH]c(Cc2ccccc2OC(F)(F)F)nc2c(C3CCCC3)n[nH]c12` [Compound 256, 3-Cyclopentyl-5-(2-trifluoromethoxybenzyl)-1,6-dihydro-pyrazolo[4,3-d]pyrimidin-7one], the inhibition at 1 µM is greater than 40%.
`O=c1[nH]c(Cc2ccccc2OC(F)(F)F)nc2c(-c3cccnc3)n[nH]c12` [Compound 258]: the half-maximal inhibitory concentration (IC50) (read-out: IC50 against PDE9) was determined as 141 nM.
On to `CC(C)c1c2nc(Cc3cccc(Cl)c3)[nH]c(=O)c2nn1C` [Compound 262, 5-(3-Chlorobenzyl)-3-isopropyl-2-methyl-2,6-dihydro-7H-pyrazolo[4,3-d]pyrimidin-7-one], for which the inhibition at 1 µM is greater than 40%.
Take `O=c1[nH]c(Cc2ccccc2OC(F)(F)F)nc2c(-c3ccccc3)n[nH]c12` [Compound 263, 5-(2-Trifluoromethoxybenzyl)-3-phenyl-1,6-dihydro-7H-pyrazolo[4,3-d]pyrimidin-7-one]: the inhibition at 1 µM was greater than 40%.
In the case of `CCCc1n[nH]c2c(=O)[nH]c(Cc3cccc(Br)c3)nc12` [standard, 5-(3-bromobenzyl)-3-n-propyl-1,6-dihydro-7H-pyrazolo[4,3-d]pyrimidin-7-one, reference compound], the IC50 (range the standard inhibitor was expected to fall in, read-out: IC50 of the standard) lay in the range of 30 to 50 nM.
